Values of other authors, collected in PubChem BioAssay AID1259409 (Chemical Carcinogenesis Research Information System (CCRIS), 2018).

Tested on: rodent chemically induced tumor inhibition, incidence and multiplicity
Assay: CCRIS tumor inhibitor studies
Conditions: Carcinogen: 7,12-DIMETHYLBENZ[A]ANTHRACENE, 57-97-6, Route [Inhibitor]: ORAL, Promoter: NONE USED

Structure (SMILES): O=[Se](O)O
- tumour outcome (control, treated, inhibition, significance) (Dose [Inhibitor]: 0, 0.5 UG/G IN DIET BEGINNING 2 WK PRIOR TO CARCINOGEN DOSE AND CONTINUING FOR 2 WK POST CARCINOGEN DOSE FOLLOWED BY BAS, Species: RAT, Strain/Sex: SPRAGUE-DAWLEY/FEMALE, Target Tissue: Type of Lesion: MAMMARY GLAND: TUMOR, Dose [Carcinogen]: 5 MG/KG): 52%, 32%, 38%, not calculated
- tumour outcome (control, treated, inhibition, significance) (Dose [Inhibitor]: 0, 1 UG/G IN DIET BEGINNING 2 WK PRIOR TO CARCINOGEN DOSE AND CONTINUING FOR 2 WK POST CARCINOGEN DOSE FOLLOWED BY BASAL, Species: RAT, Strain/Sex: SPRAGUE-DAWLEY/FEMALE, Target Tissue: Type of Lesion: MAMMARY GLAND: TUMOR, Dose [Carcinogen]: 5 MG/KG): 52%, 24%, 54%, not calculated
- tumour outcome (control, treated, inhibition, significance) (Dose [Inhibitor]: 0, 2 PPM (AS SELENIUM) IN DIET BEGINNING 2 WK PRIOR TO CARCINOGEN DOSE AND CONTINUING FOR DURATION OF STUDY (STUDY DURAT, Species: RAT, Strain/Sex: SPRAGUE-DAWLEY/FEMALE, Target Tissue: Type of Lesion: MAMMARY GLAND: ADENOCARCINOMA, Dose [Carcinogen]: 10 MG ONCE AT 55 D OF AGE): 88%, 72%, 18%, not significant
- tumour outcome (control, treated, inhibition, significance) (Dose [Inhibitor]: 0, 2 UG/G IN DIET BEGINNING 2 WK PRIOR TO CARCINOGEN DOSE AND CONTINUING FOR 2 WK POST CARCINOGEN DOSE FOLLOWED BY BASAL, Species: RAT, Strain/Sex: SPRAGUE-DAWLEY/FEMALE, Target Tissue: Type of Lesion: MAMMARY GLAND: TUMOR, Dose [Carcinogen]: 5 MG/KG): 52%, 14%, 73%, not calculated
- tumour outcome (control, treated, inhibition, significance) (Dose [Inhibitor]: 0, 2.5 MG/KG IN DIET TO ANIMALS ON VITAMIN E ADEQUATE DIETS (50 MG/KG) (STUDY DURATION: 20 WK), Species: RAT, Strain/Sex: SPRAGUE-DAWLEY/FEMALE, Target Tissue: Type of Lesion: MAMMARY GLAND: TUMOR, Dose [Carcinogen]: 5 MG ONCE AT 50 D OF AGE): 19/25 (76%), 10/25 (40%), 47%, not calculated
- tumour outcome (control, treated, inhibition, significance) (Dose [Inhibitor]: 0, 2.5 MG/KG IN DIET TO ANIMALS ON VITAMIN E DEFICIENT DIETS (10 MG/KG) (STUDY DURATION: 20 WK), Species: RAT, Strain/Sex: SPRAGUE-DAWLEY/FEMALE, Target Tissue: Type of Lesion: MAMMARY GLAND: TUMOR, Dose [Carcinogen]: 5 MG ONCE AT 50 D AGE): 21/25 (84%), 17/25 (68%), 19%, not calculated
- tumour outcome (control, treated, inhibition, significance) (Dose [Inhibitor]: 0, 3 PPM (AS SELENIUM) IN DIET BEGINNING 2 WK PRIOR TO CARCINOGEN DOSE AND CONTINUING FOR DURATION OF STUDY (STUDY DURAT, Species: RAT, Strain/Sex: SPRAGUE-DAWLEY/FEMALE, Target Tissue: Type of Lesion: MAMMARY GLAND: ADENOCARCINOMA, Dose [Carcinogen]: 10 MG ONCE AT 55 D OF AGE): 88%, 52%, 41%, p<0.05
- tumour outcome (control, treated, inhibition, significance) (Dose [Inhibitor]: 0, 3 UG/ML IN DRINKING WATER FROM 40-90 D OF AGE THEN 0, 2 UG/ML FROM 90-180 D OF AGE AND 0, 1 UG/ML FROM 180-240 D OF A, Dose [Inhibitor]: 0, 3 UG/ML IN DRINKING WATER FROM 40-90 D OF AGE THEN 0, 2 UG/ML FROM 90-180 D OF AGE AND 0, 1 UG/ML FROM 180-240 D OF A, Species: RAT, Strain/Sex: SPRAGUE DAWLEY/FEMALE, Target Tissue: Type of Lesion: MAMMARY GLAND: ADENOCARCINOMA, FIBROADENOMA, Dose [Carcinogen]: 5 MG IN 0.2 ML SESAME OIL 1/2 D FOR 12 D BEGINNING AT 50 D OF AGE): 100%, 52%, 48%, p<0.001
- tumour outcome (control, treated, inhibition, significance) (Dose [Inhibitor]: 0, 4 PPM IN DRINKING WATER BEGINNING 2 WK PRIOR TO CARCINOGEN DOSE AND CONTINUING FOR 1 WK POST CARCINOGEN DOSE (STUDY D, Species: RAT, Strain/Sex: SPRAGUE-DAWLEY/FEMALE, Target Tissue: Type of Lesion: MAMMARY GLAND: TUMOR, Dose [Carcinogen]: 10 MG IN 1 ML OLIVE OIL ONCE AT 7 WK OF AGE): 19/21 (91%), 19/21 (91%), 0%
- tumour outcome (control, treated, inhibition, significance) (Dose [Inhibitor]: 0, 4 UG/G IN DIET BEGINNING 2 WK PRIOR TO CARCINOGEN DOSE AND CONTINUING FOR 2 WK POST CARCINOGEN DOSE FOLLOWED BY BASAL, Species: RAT, Strain/Sex: SPRAGUE-DAWLEY/FEMALE, Target Tissue: Type of Lesion: MAMMARY GLAND: TUMOR, Dose [Carcinogen]: 5 MG/KG): 52%, 10%, 81%, not calculated
- tumour outcome (control, treated, inhibition, significance) (Dose [Inhibitor]: 0, 4 UG/G IN DIET BEGINNING 2 WK PRIOR TO CARCINOGEN DOSE AND CONTINUING FOR DURATION OF STUDY (STUDY DURATION: 43 WK), Species: RAT, Strain/Sex: SPRAGUE-DAWLEY/FEMALE, Target Tissue: Type of Lesion: MAMMARY GLAND: TUMOR, Dose [Carcinogen]: 5 MG/KG): 52%, 5%, 90%, not calculated
- tumour outcome (control, treated, inhibition, significance) (Dose [Inhibitor]: 0.2, 2 PPM IN DIET BEGINNING 3 D PRIOR TO CARCINOGEN DOSE AND CONTINUING FOR 8 MO (STUDY DURATION: 8 MO), Species: MOUSE, Strain/Sex: BALB/FEMALE, Target Tissue: Type of Lesion: MAMMARY GLAND: ADENOCARCINOMA, Dose [Carcinogen]: 1 MG/WK FOR 6 WK): 12/31 (39%), 4/34 (12%), 69%, p<0.025
- tumour outcome (control, treated, inhibition, significance) (Dose [Inhibitor]: 0.5 PPM IN 5% CORN OIL DIET DAILY STARTING 29 D BEFORE CARCINOGEN TREATMENT AND CONTINUING FOR DURATION OF STUDY (STUDY, Species: RAT, Strain/Sex: SPRAGUE-DAWLEY/FEMALE, Target Tissue: Type of Lesion: MAMMARY GLAND: ADENOCARCINOMA, Dose [Carcinogen]: 5 MG IN CORN OIL ONCE AT 50 D OF AGE): 12/30 (40%), 11/30 (37%), 8%, not significant
- tumour outcome (control, treated, inhibition, significance) (Dose [Inhibitor]: 0.5 PPM IN 25% CORN OIL DIET DAILY STARTING 29 D BEFORE CARCINOGEN TREATMENT AND CONTINUING FOR DURATION OF STUDY (STUDY, Species: RAT, Strain/Sex: SPRAGUE-DAWLEY/FEMALE, Target Tissue: Type of Lesion: MAMMARY GLAND: ADENOCARCINOMA, Dose [Carcinogen]: 5 MG IN CORN OIL ONCE AT 50 D OF AGE): 21/30 (70%), 20/29 (69%), 1%, not significant
- tumour outcome (control, treated, inhibition, significance) (Dose [Inhibitor]: 0.5 PPM IN DIET DAILY STARTING 1 WK PRIOR TO CARCINOGEN TREATMENT AND CONTINUING FOR DURATION OF STUDY (STUDY DURATION:, Species: MOUSE, Strain/Sex: BD2F1/FEMALE, Target Tissue: Type of Lesion: MAMMARY GLAND: TUMOR, Dose [Carcinogen]: 1 MG IN 0.2 ML COTTONSEED OIL 1/WK FOR 6 WK STARTING AT 8 WK OF AGE): 18/32 (56%), 10/33 (30%), 46%, not calculated
